Measured values as given in article PMC6278366, “Synthesis and Evaluation of Anticancer Activities of Novel C-28 Guanidine-Functionalized Triterpene Acid Derivatives” (Molecules, 2018).
Counter-ions that a name gives are not always drawn. Like-named read-outs stand apart in the source and are kept apart here.

Legend:
[1] = test system: Jurkat (T-lymphoblastic leukemia) cells; assay: cells; assay type: cell-based; settings: mean ± SE, at least three experiments in duplicate, viable cells, read-out: IC50 Jurkat
Procedure: (§1) Cells (Jurkat, K562, U937, HeLa, HEK293 and normal Fibroblasts) were purchased from Russian Cell Culture Collection (Institute of Cytology of the Russian Academy of Sciences, Saint Petersburg, Russia) and cultured according to standard mammalian tissue culture protocols and sterile technique. Human cell lines HEK293 and HeLa were obtained from the HPA Culture Collections (Salisbury, UK). All cell lines used in the study were tested and shown to be free of mycoplasma and viral contamination.
(§2) Cells were maintained in RPMI 1640 (Jurkat, K562, U937) (Gibco, Thermo Fisher Scientific, Waltham, MA, USA) supplemented with 4 mM glutamine, 10% FBS (Sigma, Burlington, MA, USA) and 100 units/mL penicillin-streptomycin (Sigma). All types of cells were grown in an atmosphere of 5% CO2 at 37 °C. The cells were subcultures at 2–3 days intervals. Adherent cells (HEK293, HeLa, fibroblasts) were suspended using trypsin/EDTA and counted after they have reached 80% confluency. Cells were then seeded in 24 well plates at 5 × 10^4 cells per well and incubated overnight. Jurkat, K562, U937 cells were subcultured at 2 day intervals with a seeding density of 1 × 10^5 cells per 24 well plates in RPMI with 10% FBS.
(§3) Viability (Live/dead) assessment was performed by staining cells with 7-AAD (7-Aminoactinomycin D) (Biolegend, San Diego, CA, USA). Cells were treated of test compounds with six different concentrations (1, 5, 10, 15, 30 and 60 μM). After treatment, cells were harvested, washed 1–2 times with phosphate-buffered saline (PBS) and centrifuged at 400× g for 5 min. Cell pellets were resuspended in 200 μL of flow cytometry staining buffer (PBS without Ca^2+ and Mg^2+, 2.5% FBS) and stained with 5 μL of 7-AAD staining solutionfor 15 min at room temperature in the dark. Samples were acquired on NovoCyteTM 2000 FlowCytometry System (ACEA, San Diego, CA, USA) equipped with 488 nm argon laser. Detection of 7-AAD emission was collected through a 675/30 nm filter in FL4 channel.

[2] = test system: K562 (chronic myeloid leukemia) cells; assay: Cytotoxicity assay (7-AAD viability, flow cytometry), K562; assay type: cell-based, human; settings: at least three experiments in duplicate, viable cells, read-out: IC50 K562
Procedure: as §1, §2, §3

[3] = test system: U937 (histiocytic lymphoma) cells; assay: Cytotoxicity assay (7-AAD viability, flow cytometry), U937; assay type: cell-based, human; settings: at least three experiments in duplicate, viable cells, read-out: IC50 U937
Procedure: as §1, §2, §3

[4] = test system: HEK293 (embryonic kidney) cells; assay: Cytotoxicity assay (7-AAD viability, flow cytometry), HEK293; assay type: cell-based, human; settings: at least three experiments in duplicate, viable cells
Procedure: as §1
(§4) HEK293, HeLa cell lines and fibroblasts were cultured as monolayers and maintained in Dulbecco’s modified Eagle’s medium (DMEM, Gibco BRL, Waltham, MA, USA) supplemented with 10% foetal bovine serum and 1% penicillin-streptomycin solution at 37 °C in a humidified incubator under a 5% CO2 atmosphere.
as §2, §3

[5] = test system: HeLa (cervical cancer) cells; assay: Cytotoxicity assay (7-AAD viability, flow cytometry), HeLa; assay type: cell-based, human; settings: mean ± SE, at least three experiments in duplicate, viable cells
Procedure: as §1, §4, §2, §3

normal human fibroblasts = assay: Cytotoxicity assay (7-AAD viability, flow cytometry), normal fibroblasts; assay type: cell-based; settings: mean ± SE, at least three experiments in duplicate
Procedure: as §1, §4, §2
as §3, with “Cells were treated of test compounds with six different concentrations (1, 5, 10, 15, 30 and 60 μM).” left out

Jurkat cells = assay: Annexin V/7-AAD apoptosis assay by flow cytometry; assay type: cell-based, human; settings: 48 h; for early apoptotic cells (Q7-4) / late apoptotic cells (Q7-2) / necrotic cells (Q7-1) / living (vital) cells (Q7-3): at IC50 concentration (59 μM Dihydro BA; 4 μM 15, 15c, 18c; 8 μM 20c); for total number of apoptotic cells (early + late): at IC50 concentration (59 μM Dihydro BA; 4 μM 15c; 8 μM 20c)
Procedure: Apoptosis was determined by flow cytometric analysis of Annexin V and 7-aminoactinomycin D staining. Briefly, 200 μL of Guava Nexin reagent (Millipore, Bedford, MA, USA) was added to 5 × 10^5 cells in 200 μL, and the cells were incubated with the reagent for 20 min at room temperature in the dark. […] At the end of incubation, the cells were analyzed on NovoCyteTM 2000 FlowCytometry System (ACEA). Different states of cell death were defined as follows: normal cells are localized in the lower-left quadrant (Annexin V^−/PI^−); early apoptotic cells are in the lower-right quadrant (Annexin V^+/PI^−); late apoptotic cells and necrotic cells are in the upper-right quadrant (Annexin V^+/PI^+); and necrotic cells are in the upper-left quadrant (Annexin V^−/PI^+).
Figure 2 AnnexinV/7-AAD staining upon induction of apoptosis in Jurkat cells. […] Then, the cells were harvested, stained with Annexin V/7-AAD and analyzed by flow cytometry. The experiments were performed three times, and the results of the representative experiments are shown. The first cytogram represents an untreated cell sample (A); after incubation with dihydrobetulinic acid for 24 h (B) and for 48 h (C); after incubation with compound 15 for 24 h (D) and for 48 h (E); after incubation with compound 15c for 24 h (F) and for 48 h (G); after incubation with compound 18c for 24 h (H) and for 48 h (I); after incubation with compound 20c for 24 h (J) and for 48 h (K). Q7-1, necrotic cells; Q7-2, late apoptotic cells; Q7-3, living cells; Q7-4, early apoptotic cells. TEXT PRINTED IN THE PICTURE: (B) Dihydro BA: Q7-1 0.96% (59 μM); Q7-2 12.11% (59 μM); Q7-3 80.09% (59 μM); Q7-4 6.84% (59 μM) | (C) Dihydro BA: Q7-1 2.34% (59 μM); Q7-2 20.53% (59 μM); Q7-3 73.11% (59 μM); Q7-4 4.02% (59 μM) | (D) Compound 15: Q7-1 3.08% (4 μM); Q7-2 2.24% (4 μM); Q7-3 92.34% (4 μM); Q7-4 2.34% (4 μM) | (E) Compound 15: Q7-1 5.53% (4 μM); Q7-2 91.79% (4 μM); Q7-3 0.58% (4 μM); Q7-4 2.10% (4 μM) | (F) Compound 15c: Q7-1 1.51% (4 μM); Q7-2 2.64% (4 μM); Q7-3 84.92% (4 μM); Q7-4 10.93% (4 μM) | (G) Compound 15c: Q7-1 21.72% (4 μM); Q7-2 16.54% (4 μM); Q7-3 54.49% (4 μM); Q7-4 7.25% (4 μM) | (H) Compound 18c: Q7-1 1.48% (4 μM); Q7-2 3.70% (4 μM); Q7-3 91.14% (4 μM); Q7-4 3.67% (4 μM) | (I) Compound 18c: Q7-1 20.73% (4 μM); Q7-2 14.32% (4 μM); Q7-3 58.16% (4 μM); Q7-4 6.79% (4 μM) | (J) Compound 20c: Q7-1 3.78% (8 μM); Q7-2 1.72% (8 μM); Q7-3 92.26% (8 μM); Q7-4 2.24% (8 μM) | (K) Compound 20c: Q7-1 6.09% (8 μM); Q7-2 7.35% (8 μM); Q7-3 78.36% (8 μM); Q7-4 8.20% (8 μM) DOUBTS OF THE COPYIST ABOUT THIS PICTURE: Panel A (Control, untreated cells: Q7-1 3.75%, Q7-2 0.00%, Q7-3 96.24%, Q7-4 0.01%) left out of lines because it is not a substance / Dihydro BA panel B, Q7-3: 80.09% partly overlaid by plot points, 80.09 or 80.03 / Dihydro BA panel C, Q7-3: 73.11% partly overlaid by plot points / Compound 18c panel I, Q7-3: 58.16% small print, 58.16 or 58.18 / Compound 15 panel E, Q7-3: 0.58% small print, 0.58 or 0.56

[6] = Homo sapiens, HEK293, mean ± SE

SMILES: CC(=O)O[C@H]1CC[C@@]2(C)C(CC[C@]3(C)C2CCC2C4C(C(C)C)CC[C@]4(C(=O)NCCNC(=N)N)CC[C@]23C)C1(C)C (stereo partly drawn) (as salt: hydrochloride) [Compound 10b, 3β-N-(2-Ethylgyanidine)-3-O-acetyl-lupane-28-amide hydrochloride]
- melting point: 192 to 194 °C

SMILES: CC(=O)O[C@H]1CC[C@@]2(C)C(CC[C@]3(C)C2CCC2C4C(C(C)C)CC[C@]4(C(=O)NCCCN4CCN(CCCNC(=N)N)CC4)CC[C@]23C)C1(C)C (stereo partly drawn) (as salt: trifluoroacetate) [Compound 13a, 3β-N-{[3-(3-Propylguanidine)piperazinyl]propyl}-3-O-acetyl-lupane-28-amide trifluoroacetate]
- melting point: 92 to 94 °C

SMILES: CC(=O)O[C@H]1CC[C@@]2(C)C(CC[C@]3(C)C2CCC2C4C(C(C)C)CC[C@]4(C(=O)NCCN(CCNC(=N)N)CCNC(=N)N)CC[C@]23C)C1(C)C (single isomer, unassigned) (as salt: hydrochloride) [Compound 12b, 3β-N-[2-(N,N′-bis-Ethylgyanidine)-aminoethyl]-3-O-acetyl-lupane-28-amide dihydrochloride]
- melting point: 198 to 200 °C

SMILES: CC(=O)O[C@H]1CC[C@@]2(C)C(CC[C@]3(C)C2CCC2C4C(C(C)C)CC[C@]4(C(=O)NCCN(CCNC(=N)N)CCNC(=N)N)CC[C@]23C)C1(C)C (single isomer, unassigned) (as salt: trifluoroacetate) [Compound 12a, 3β-N-[2-(N,N′-bis-Ethylgyanidine)-aminoethyl]-3-O-acetyl-lupane-28-amide trifluoroacetate]
- melting point: 116 to 118 °C

SMILES: CC(=O)O[C@H]1CC[C@@]2(C)C(CC[C@]3(C)C2CC=C2C4[C@@H](C)[C@H](C)CC[C@]4(C(=O)OCC(CO)(CO)NC(=N)N)CC[C@]23C)C1(C)C (single isomer, unassigned) [Compound 18c, 3β-[2-Guanidine-3-hydroxy-2-(hydroxymethyl)propyl]-3-O-acetyl-urs-12-en-28-oate hydrochloride]
- IC50 [1]: 3.8 ± 0.23 µM
- IC50 ([2]; mean ± SE): 11 ± 0.18 µM
- IC50 ([3]; mean ± SE): 5.3 ± 0.29 µM
- IC50 ([4]; mean ± SE): 14 ± 0.34 µM
- IC50 [5]: 12 ± 0.29 µM
- IC50 (normal human fibroblasts): 51 ± 0.26 µM
- early apoptotic cells (Q7-4) (Jurkat cells): 6.8%
- late apoptotic cells (Q7-2) (Jurkat cells): 14.3%
- necrotic cells (Q7-1) (Jurkat cells): 20.7%

SMILES: CC(C)C1CC[C@]2(C(=O)NCCCCN)CC[C@]3(C)C(CCC4[C@@]5(C)CCC(=O)C(C)(C)C5CC[C@]43C)C12 (stereo partly drawn) [Compound 4, N-(4-Aminobuthyl)-3-oxolupane-28-amide]
- IC50 ([1]; Homo sapiens, Jurkat): 1.4 ± 0.41 µM
- IC50 ([2]; Homo sapiens, K562, mean ± SE): 1.3 ± 0.49 µM
- IC50 ([3]; Homo sapiens, U-937, mean ± SE): 1.7 ± 0.36 µM
- IC50 [4, 6]: 2.4 ± 0.35 µM
- IC50 ([5]; Homo sapiens, HeLa): 2.8 ± 0.28 µM
- IC50 (normal human fibroblasts; Homo sapiens, Fibroblast): 3.4 ± 0.19 µM
- melting point: 170 to 172 °C

SMILES: CC(=O)O[C@H]1CC[C@@]2(C)C(CC[C@]3(C)C2CC=C2C4CC(C)(C)CC[C@]4(C(=O)OCC(CO)(CO)NC(=N)N)CC[C@]23C)C1(C)C (stereo partly drawn) [Compound 20c, 3β-[2-Guanidine-3-hydroxy-2-(hydroxymethyl)propyl]-3-O-acetyl-olean-12-en-28-oate hydrochloride]
- IC50 [1]: 7.6 ± 0.33 µM
- IC50 ([2]; mean ± SE): 13 ± 0.45 µM
- IC50 ([3]; mean ± SE): 6.8 ± 0.11 µM
- IC50 ([4]; mean ± SE): 19 ± 0.17 µM
- IC50 [5]: 17 ± 0.32 µM
- IC50 (normal human fibroblasts): 54 ± 0.12 µM
- living (vital) cells (Q7-3) (Jurkat cells): 78.4%
- necrotic cells (Q7-1) (Jurkat cells): 6.1%
- total number of apoptotic cells (early + late) (Jurkat cells): about 15.5%

SMILES: CC(C)[C@@H]1CC[C@]2(C(=O)O)CC[C@]3(C)[C@H](CC[C@@H]4[C@@]5(C)CC[C@H](O)C(C)(C)[C@@H]5CC[C@]43C)[C@@H]12 [Dihydro BA, 20,29-dihydrobetulinic acid, reference compound]
- IC50 ([1]; Homo sapiens, Jurkat): 59 ± 0.31 µM
- IC50 ([2]; Homo sapiens, K562, mean ± SE): 44 ± 0.24 µM
- IC50 ([3]; Homo sapiens, U-937, mean ± SE): 39 ± 0.38 µM
- IC50 [4, 6]: 128 ± 0.32 µM
- IC50 ([5]; Homo sapiens, HeLa): 132 ± 0.47 µM
- IC50 (normal human fibroblasts; Homo sapiens, Fibroblast): 517 ± 0.26 µM
- early apoptotic cells (Q7-4) (Jurkat cells): 4.0%
- late apoptotic cells (Q7-2) (Jurkat cells): 20.5%
- living (vital) cells (Q7-3) (Jurkat cells): 73.1%
- total number of apoptotic cells (early + late) (Jurkat cells): around 24%
